The supplement of paper PMC3974653
Structures can show the parent of a compound that is named as a salt.

System: MTT (mouse pheochromocytoma)
Assay: IC50 of cell viability (ATP content)
Conditions: (24 or 48 h)
In short: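 Library compounds in DMSO (23 nl by pintool, 8 concentrations, final 0.5 nM to 46 µM) were applied for 24 or 48 hrs to MTT mouse pheochromocytoma cells that had been cultured overnight at 37°C, 5% CO2 in white 1536-well plates. Cell viability was measured by CellTiter-Glo ATP luminescence, read after 15 minutes, with positive-control wells set at 100% and DMSO wells at 0%. A four-parameter logistic fit of the normalised signals yielded the IC50.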

Row | Structure (SMILES) | IC50 of cell viability [µM]
1 | CC(C)(C)NCC(O)COc1ccc(NC(=O)NC2CCCCC2)cc1 (stereo not given) [TALINOLOLUM] | > 46
2 | CN1C(=O)C[C@@H](C(=O)N[C@@H](Cc2c[nH]cn2)C(=O)N2CCC[C@H]2C(N)=O)NC1=O [TALTIRELIN HYDRATE] | > 46
3 | CCOc1ccccc1OCCN[C@H](C)Cc1ccc(OC)c([S+](N)(=O)[O-])c1 [TAMSULOSIN HYDROCHLORIDE] | > 46
4 | NCC[S+](=O)([O-])O [TAURINE] | > 46
5 | CCCc1nc2c(C)cc(-c3nc4ccccc4n3C)cc2n1Cc1ccc(-c2ccccc2C(=O)O)cc1 [TELMISARTAN] | > 46
6 | COP(=S)(OC)Oc1ccc(Sc2ccc(OP(=S)(OC)OC)cc2)cc1 [TEMEFOSUM] | > 46
7 | CCOC(=O)C(CCc1ccccc1)NC1CSC(c2cccs2)CN(CC(=O)O)C1=O (stereo not given) [TEMOCAPRIL HYDROCHLORIDE] | > 46
8 | Cn1nnc2c(C(N)=O)ncn2c1=O [TEMOZOLOMIDE] | > 46
9 | CO[C@H]1C[C@@H]2CC[C@@H](C)[C@@](O)(O2)C(=O)C(=O)N2CCCC[C@H]2C(=O)O[C@H]([C@H](C)C[C@@H]2CC[C@@H](OC(=O)C(C)(CO)CO)[C@H](OC)C2)CC(=O)[C@H](C)C=C(C)[C@@H](O)[C@@H](OC)C(=O)[C@H](C)C[C@H](C)/C=C/C=C/C=C1C [TEMSIROLIMUS] | > 46
10 | COc1ccc2[nH]c([S+]([O-])Cc3ncc(C)c(OC)c3C)nc2n1 (stereo not given) [TENATOPRAZOLE] | > 46
11 | c1csc(C2(N3CCCCC3)CCCCC2)c1 [TENOCYCLIDINUM] | > 46
12 | CC(=O)CC/C=C(\C)CC/C=C(/C)CC/C=C(\C)CCC=C(C)C [TEPRENONE] | > 46
13 | CC(C)(C)c1ccc(C(O)CCCN2CCC(C(O)(c3ccccc3)c3ccccc3)CC2)cc1 (stereo not given) [TERFENADINE] | > 46
14 | NCCCC[C@H](NC(=O)[C@@H]1CCCN1C(=O)[C@@H]1CSSC[C@H](NC(=O)CNC(=O)CNC(=O)CN)C(=O)N[C@@H](Cc2ccc(O)cc2)C(=O)N[C@@H](Cc2ccccc2)C(=O)N[C@@H](CCC(N)=O)C(=O)N[C@@H](CC(N)=O)C(=O)N1)C(=O)NCC(N)=O [TERLIPRESSIN] | > 46
15 | CCCCCCCCCC(=O)O[C@H]1CC[C@H]2[C@@H]3CCC4=CC(=O)CC[C@]4(C)[C@H]3CC[C@]12C [TESTOSTERONE DECANOATE] | > 46
16 | CC(C)CCC(=O)OC1CCC2C3CCC4=CC(=O)CC[C@]4(C)C3CC[C@]12C (stereo not given in full) [TESTOSTERONE ISOCAPROATE] | > 46
17 | CC(C)=CC1C(C(=O)OCN2C(=O)\C3=C(\CCCC3)C2=O)C1(C)C (stereo not given) [TETRAMETHRINUM] | > 46
18 | CN(C)C(=S)SC(=S)N(C)C [TETRAMETHYLTHIURAM MONOSULFIDE] | > 46
19 | CNc1c2c(nn1C)CCCC2 [TETRIDAMINUM] | > 46
20 | COC1=CC=C2[C@H]3Cc4ccc(OC)c5c4[C@@]2(CCN3C)[C@H]1O5 [THEBAINE] | > 46
21 | C/C(=C(/CCO)SS/C(CCO)=C(\C)N(C=O)Cc1cnc(C)nc1N)N(C=O)Cc1cnc(C)nc1N [THIAMINE DISULFIDE] | > 46
22 | C[S+](=O)([O-])c1ccc([C@@H](O)[C@@H](COC(=O)CN)NC(=O)C(Cl)Cl)cc1 [THIAMPHENICOL AMINOACETATE HYDROCHLORIDE] | > 46
23 | [Na+].CCCC(C)C1(CC=C)C(=O)N\C(=N/C1=O)[S-] (stereo not given) [THIAMYLAL SODIUM] | > 46
24 | S=P(N1CC1)(N1CC1)N1CC1 [THIO-TEPA] | > 46

Row | Structure (SMILES) | IC50 of cell viability [µM]
25 | NC(=O)CCCCC1CCSS1 (stereo not given) [THIOCTIC ACID AMIDE] | > 46
26 | OCC(O)CS (stereo not given) [THIOGLYCEROL] | > 46
27 | NC/1=N/C2=C([NH]C=N2)C(=S)N1 [THIOGUANINE] | > 46
28 | CCCC(C)C1(CC)C(=O)NC(=S)NC1=O (stereo not given) [THIOPENTAL SODIUM] | > 46
29 | COc1ccc(CN(CCN(C)C)c2ncccn2)cc1.Cl [THONZYLAMINE HYDROCHLORIDE] | > 46
30 | CC(O)C(N)C(=O)O (stereo not given) [THREONINE] | > 46
31 | Cc1cc(OI)c(C(C)C)cc1-c1cc(C(C)C)c(OI)cc1C [THYMOL IODIDE] | > 46
32 | CC(C)C(NC(=O)C(CC(=O)O)NC(=O)C(CCCCN)NC(=O)C(N)CCCNC(=N)N)C(=O)NC(Cc1ccc(O)cc1)C(=O)O (stereo not given) [THYMOPENTINUM] | > 46
33 | C=C[C@]1(C)C[C@@H](OC(=O)CSCCN(CC)CC)[C@]2(C)C(C)CC[C@]3(CCC(=O)[C@H]32)[C@@H](C)[C@@H]1O (stereo not given in full) [TIAMULIN] | > 46
34 | CN1c2ccccc2C(NCCCCCCC(=O)[O][Na])c2ccc(Cl)cc2[S+]1(=O)[O-] (stereo not given) [TIANEPTINUM] | > 46
35 | C#C[C@]1(O)CC[C@H]2[C@H]3[C@H](CC[C@@]21C)C1=C(CC(=O)CC1)C[C@@H]3C [TIBOLONE] | > 46
36 | CCN(CC)CCSC(=O)C(c1ccccc1)c1ccccc1 [TIFENAMILUM] | > 46
37 | CCC1OC(=O)C[C@H](O)C(C)[C@@H](O[C@@H]2OC(C)C(O)[C@H](N(C)C)C2O)C(CCN2CC(C)CC(C)C2)CC(C)C(=O)/C=C/C(C)=C\[C@@H]1COC1OC(C)C(O)C(OC)C1OC (stereo not given in full) [TILMICOSIN] | > 46
38 | COC1C\C(C[N+](C)(C)C1)=C(/C2=CC=CS2)C3=CC=CS3 (stereo not given) [TIMEPIDIUM BROMIDE] | > 46
39 | O=C(O)[C@@H]1CSCN1 [TIMONACICUM] | > 46
40 | CC(S)C(=O)NCC(=O)O (stereo not given) [TIOPRONIN] | > 46
41 | CN/C(=N/C#N)NCCSCc1csc(N=C(N)N)n1 [TIOTIDINE] | > 46
42 | CN1CCC\C(C1)=C(/C2=CC=CS2)C3=CC=CS3 [TIPEPIDINE HIBENZATE] | > 46
43 | CCC[C@]1(CCc2ccccc2)CC(O)=C([C@H](CC)c2cccc(N[S+](=O)([O-])c3ccc(C(F)(F)F)cn3)c2)C(=O)O1 [TIPRANAVIR] | > 46
44 | Cc1c(C)c2c(c(C)c1OC(=O)c1cccnc1)CC[C@@](C)(CCC[C@H](C)CCC[C@H](C)CCCC(C)C)O2 [TOCOPHEROL NICOTINATE] | > 46
45 | Cc1c(C)c2c(c(C)c1OC(=O)CCC(=O)O)CC[C@@](C)(CCC[C@H](C)CCC[C@H](C)CCCC(C)C)O2 [TOCOPHERYL SUCCINATE] | > 46
46 | CC1=C(/C=C/C(C)=C/C=C/C(C)=C/C(=O)Oc2c(C)c(C)c3c(c2C)CC[C@@](C)(CCC[C@H](C)CCC[C@H](C)CCCC(C)C)O3)C(C)(C)CCC1 [TOCORETINATE] | > 46
47 | CCC1\C(=N/N=C(C2=CC(=C(OC)C=C2)OC)\C3=C1C=C(OC)C(=C3)OC)C (stereo not given) [TOFISOPAM] | > 46
48 | Cc1ccc([S+](=O)([O-])NC(=O)NN2CCCCCC2)cc1 [TOLAZAMIDE] | > 46

Further lines, results first:

Row | IC50 of cell viability [µM] | Structure (SMILES)
49 | > 46 | CN1CC(=O)N2C(Cc3c([nH]c4ccccc34)[C@H]2c2ccc3c(c2)OCO3)C1=O (stereo not given in full) [TADALAFIL]
50 | > 46 | O=C1OC(OC(=O)c2cccnc2Nc2cccc(C(F)(F)F)c2)c2ccccc21 (stereo not given) [TALNIFLUMATUM]
51 | > 46 | CC1(C)CCC(C)(C)c2cc(NC(=O)c3ccc(C(=O)O)cc3)ccc21 [TAMIBAROTENE]
52 | > 46 | CCOC(=O)c1ccc(C#Cc2ccc3c(c2)C(C)(C)CCS3)nc1 [TAZAROTENE]
53 | > 46 | O=c1[nH]c(=O)n(C2CCCO2)cc1F (stereo not given) [TEGAFUR]
54 | > 46 | CCCCCNC(=N)N/N=C/c1c[nH]c2ccc(OC)cc12 [TEGASEROD]
55 | > 46 | Cc1cn([C@H]2C[C@H](O)[C@@H](CO)O2)c(=O)[nH]c1=O [TELBIVUDINUM]
56 | > 46 | Cc1scc2c1N(C(=O)CN1CCN(C)CC1)c1ccccc1NC2=O [TELENZEPINE]
57 | > 46 | NC(=O)n1c(O)c(C(=O)c2cccs2)c2cc(Cl)ccc21 [TENIDAPUM]
58 | > 46 | OC\1=C(O)\C(=O)\C(=C(O)/C1=O)O [TETROQUINONE]
59 | > 46 | CC(=O)Nc1ccc(/C=N/NC(N)=S)cc1 [THIOACETAZONUM]
60 | > 46 | CSc1ccc2c(c1)N(CCC1CCCCN1C)c1ccccc1S2 (stereo not given) [THIORIDAZINE]
61 | > 46 | Clc1ccccc1CN1CCc2sccc2C1 [TICLOPIDINE]
62 | > 46 | CCN(CC)CCOc1ccc2c(c1)C(=O)c1cc(OCCN(CC)CC)ccc1-2 [TILORONE]
63 | > 46 | O=P([O-])(O)C(Sc1ccc(Cl)cc1)P(=O)([O-])O [TILUDRONATE DISODIUM]
64 | > 46 | Clc1ccc(C(Cn2ccnc2)OCc2ccsc2Cl)c(Cl)c1 (stereo not given) [TIOCONAZOLE]
65 | > 46 | C[N+]1(C)[C@@H]2CC(OC(=O)C(O)(c3cccs3)c3cccs3)C[C@H]1[C@@H]1O[C@@H]12 (stereo not given in full) [TIOTROPIUM BROMIDE MONOHYDRATE]
66 | > 46 | O=c1oc2cc(O)ccc2s1 [TIOXOLONE]
67 | > 46 | COC1=C(OC)C=C(CNCC(O)COC2=CC=C3NC(=O)\C=C/C3=C2)C=C1 (stereo not given) [TOBORINONE]
68 | > 46 | Cc1ccccc1OCC(O)CNCCOc1ccc(C(N)=O)cc1 (stereo not given) [TOLAMOLOLUM]
69 | > 46 | CCCCNC(=O)N[S+](=O)([O-])c1ccc(C)cc1 [TOLBUTAMIDE]
70 | > 46 | Cc1ccc(C(=O)c2cc(O)c(O)c([N+](=O)[O-])c2)cc1 [TOLCAPONE]
